Holding throughout (type): in vivo
Assay [1] concerns Zymoseptoria tritici. Briefly: Leaf blotch of wheat (SEPTTR) disease control on wheat seedlings. Conditions: for pest or weed control at 121.5 g/ha: Low volume application; for pest or weed control at 100 ppm: High volume application.
For assay [2], the system named is Puccinia triticina. Briefly: Wheat brown rust (PUCCRT) disease control on wheat seedlings. Conditions: for pest or weed control at 121.5 g/ha: Low volume application; for pest or weed control at 100 ppm: High volume application. In short, it runs like this:
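Yuma wheat seedlings (first leaf emerged) sprayed to run-off with compound in acetone plus nine volumes water containing 110 ppm Triton X-100, or track-sprayed as EC formulations with 0.1% Trycol 5941. Rust spores inoculated before or after treatment; overnight dark dew, 22 °C, 100% RH, then greenhouse at 24 °C.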

In assay [3] the test system is Phakopsora pachyrhizi. Briefly: Asian soybean rust (PHAKPA) disease control on soybean seedlings. Conditions: Phakopsora pachyrhizi, High volume application at 25 ppm. Here is the method: Example C: Evaluation of Fungicidal Activity: Asian Soybean Rust (Phakopsora pachyrhizi; Bayer Code […]) Technical grades of materials were dissolved in acetone, which were then mixed with nine volumes of water containing 0.011% Tween 20. The fungicide solutions were applied onto soybean seedlings using an automated booth sprayer to run-off. All sprayed plants were allowed to air dry prior to further handling. Soybean plants (variety Williams 82) were grown in soil-less Metro mix, with one plant per pot. Two week old seedlings were used for testing. Plants were inoculated either 3 days prior to or 1 day after fungicide treatments. Plants were incubated for 24 h in a dark dew room at 22° C. and 100% relative humidity then transferred to a growth room at 23° C. for disease to develop. Disease severity was assessed on the sprayed leaves.

The mark [4] stands for this setting: 24 h, 1 Day Protectant, read-out: SEPTTR disease control rating, 1DP.
Where [5] appears, read: 72 h, 3 Day Curative, read-out: SEPTTR disease control rating, 3DC.
The mark [6] stands for this setting: 24 h, 1 Day Protectant, read-out: PUCCRT disease control rating, 1DP.
Where [7] appears, read: 72 h, 3 Day Curative, read-out: PUCCRT disease control rating, 3DC.
[8] abbreviates: 24 h, 1 day protectant, read-out: PHAKPA 1DP (1 Day Protectant) disease control.
Where [9] appears, read: 72 h, 3 day curative, read-out: PHAKPA 3DC (3 Day Curative) disease control.

Molecules are shown by their SMILES. Where two headings read alike, the source gives them in different places.

Turning to `COc1ccc([C@@H](C)[C@@H](C)OC(=O)[C@H](C)NC(=O)c2nccc(OC)c2OCOC(C)=O)c(C)c1` [Example 233], the pest or weed control at 121.5 g/ha is under 80% in assay [1] (setting [4]), under 80% in assay [1] (setting [5]), over 80% in assay [2] (setting [6]) and under 80% in assay [2] (setting [7]). Moreover, the pest or weed control at 25 ppm is over 80% in assay [3] (setting [8]) and under 80% in assay [3] (setting [9]).

In the case of `COc1ccnc(C(=O)N[C@@H](C)C(=O)O[C@@H](C)[C@@H](C)c2c(C)cccc2C)c1OC(=O)C(C)C` [Example 237], the pest or weed control at 121.5 g/ha in assay [1] (setting [4]), in assay [1] (setting [5]), in assay [2] (setting [6]) and in assay [2] (setting [7]) was under 80% each time. The pest or weed control at 25 ppm in assay [3] (setting [8]) and in assay [3] (setting [9]) was over 80% in each case.

Take `COc1ccnc(C(=O)N[C@@H](C)C(=O)O[C@H](C)[C@H](C)c2c(C)cccc2C)c1OC(C)=O` [Example 253]: the pest or weed control at 121.5 g/ha was under 80% in assay [1] (setting [4]), under 80% in assay [1] (setting [5]), over 80% in assay [2] (setting [6]) and under 80% in assay [2] (setting [7]). Further, the pest or weed control at 25 ppm in assay [3] (setting [8]) and in assay [3] (setting [9]) was over 80% each time.

As for `COc1cc(F)ccc1[C@@H](C)[C@@H](C)OC(=O)[C@H](C)NC(=O)c1c(O)c(OC)cc[n+]1[O-]` [Example 277], the pest or weed control at 100 ppm in assay [1] (setting [4]) was under 80%; in assay [1] (setting [5]) it was under 80%; in assay [2] (setting [6]) it was under 80%; in assay [2] (setting [7]) it was under 0%. For the same compound, the pest or weed control at 121.5 g/ha in assay [1] (setting [4]) is under 80%; in assay [1] (setting [5]) it was under 80%; in assay [2] (setting [6]), under 0%; in assay [2] (setting [7]), under 80%. Further, the pest or weed control at 25 ppm in assay [3] (setting [8]) and in assay [3] (setting [9]) was under 80% each time.

`COc1ccnc(C(=S)N[C@@H](C)C(=O)O[C@@H](C)[C@@H](C)c2ccc(F)cc2C(F)(F)F)c1OC(C)=O` [Example 271]: the pest or weed control at 121.5 g/ha in assay [1] (setting [4]), in assay [1] (setting [5]), in assay [2] (setting [6]) and in assay [2] (setting [7]) was under 80% throughout. In addition, the pest or weed control at 25 ppm in assay [3] (setting [8]) and in assay [3] (setting [9]) was over 80% in each case.

As to `COc1ccnc(C(=O)N[C@@H](C)C(=O)O[C@H](C)[C@H](C)c2c(C)cc(F)cc2C)c1OC(C)=O` [Example 254], the pest or weed control at 121.5 g/ha in assay [1] (setting [4]), in assay [1] (setting [5]), in assay [2] (setting [6]) and in assay [2] (setting [7]) was over 80% throughout. Moreover, the pest or weed control at 25 ppm in assay [3] (setting [8]) and in assay [3] (setting [9]) was over 80% in each case.

For `COc1ccnc(C(=O)N[C@@H](C)C(=O)O[C@@H](C)[C@@H](C)c2ccc(F)cc2C(F)(F)F)c1OC(=O)C(C)C` [Example 235], the pest or weed control at 121.5 g/ha in assay [1] (setting [4]) was over 80%; in assay [1] (setting [5]), over 80%; in assay [2] (setting [6]), under 80%; in assay [2] (setting [7]) it was under 80%. The pest or weed control at 25 ppm in assay [3] (setting [8]) and in assay [3] (setting [9]) was over 80% throughout.

Turning to `COc1ccnc(C(=O)N[C@@H](C)C(=O)O[C@@H](C)[C@H](C)c2ccccc2C)c1OCOC(C)=O` [Example 231], the pest or weed control at 121.5 g/ha in assay [1] (setting [4]) is under 80%; in assay [1] (setting [5]), under 80%; in assay [2] (setting [6]), over 80%; in assay [2] (setting [7]), under 80%. Further, the pest or weed control at 25 ppm is under 80% in assay [3] (setting [8]) and under 0% in assay [3] (setting [9]).

On to `COc1ccnc(C(=O)N[C@@H](C)C(=O)O[C@@H](C)[C@@H](C)c2ccc(C)cc2C)c1OC(=O)C(C)C` [Example 179], for which the pest or weed control at 121.5 g/ha in assay [1] (setting [4]) is under 80%; in assay [1] (setting [5]), under 80%; in assay [2] (setting [6]), over 80%; in assay [2] (setting [7]), over 80%. The pest or weed control at 25 ppm in assay [3] (setting [8]) and in assay [3] (setting [9]) was over 80% in each case.

Take `COc1ccnc(C(=O)N[C@@H](C)C(=O)O[C@H](C)[C@H](C)c2c(C)cc(F)cc2C)c1OC(=O)C(C)C` [Example 242]: the pest or weed control at 121.5 g/ha in assay [1] (setting [4]) is over 80%; in assay [1] (setting [5]) it was over 80%; in assay [2] (setting [6]), over 80%; in assay [2] (setting [7]), under 80%. For the same compound, the pest or weed control at 25 ppm in assay [3] (setting [8]) and in assay [3] (setting [9]) was over 80% each time.

On to `COc1ccnc(C(=O)N[C@@H](C)C(=O)O[C@@H](C)[C@@H](C)c2c(C)cc(F)cc2C)c1OC(C)=O` [Example 249], for which the pest or weed control at 121.5 g/ha in assay [1] (setting [4]), in assay [1] (setting [5]), in assay [2] (setting [6]) and in assay [2] (setting [7]) was over 80% each time. In addition, the pest or weed control at 25 ppm in assay [3] (setting [8]) and in assay [3] (setting [9]) was over 80% throughout.

As for `COc1ccnc(C(=O)N[C@@H](C)C(=O)OC(C)C(C)c2c(C)cccc2C)c1OC(C)=O` (stereo partly shown) [Example 255], the pest or weed control at 121.5 g/ha was under 80% in assay [1] (setting [4]), over 80% in assay [1] (setting [5]), over 80% in assay [2] (setting [6]) and under 80% in assay [2] (setting [7]). The pest or weed control at 25 ppm in assay [3] (setting [8]) and in assay [3] (setting [9]) was over 80% in each case.

Regarding `COc1ccnc(C(=O)N[C@@H](C)C(=O)O[C@H](C)[C@H](C)c2ccccc2C)c1OC(=O)C(C)C` [Example 265], the pest or weed control at 121.5 g/ha in assay [1] (setting [4]), in assay [1] (setting [5]), in assay [2] (setting [6]) and in assay [2] (setting [7]) was under 80% each time. The pest or weed control at 25 ppm in assay [3] (setting [8]) and in assay [3] (setting [9]) was over 80% throughout.

In the case of `COc1ccnc(C(=S)N[C@@H](C)C(=O)O[C@@H](C)[C@@H](C)c2ccccc2C(F)(F)F)c1OC(C)=O` [Example 270], the pest or weed control at 121.5 g/ha in assay [1] (setting [4]), in assay [1] (setting [5]), in assay [2] (setting [6]) and in assay [2] (setting [7]) was under 80% in each case. Also, the pest or weed control at 25 ppm was over 80% in assay [3] (setting [8]) and under 80% in assay [3] (setting [9]).

As to `COc1ccnc(C(=O)N[C@@H](C)C(=O)O[C@H](C)[C@H](C)c2ccc(F)cc2C(F)(F)F)c1OC(=O)C(C)C` [Example 240], the pest or weed control at 121.5 g/ha in assay [1] (setting [4]) is under 80%; in assay [1] (setting [5]) it was under 80%; in assay [2] (setting [6]), under 0%; in assay [2] (setting [7]) it was under 0%. Moreover, the pest or weed control at 25 ppm in assay [3] (setting [8]) and in assay [3] (setting [9]) was under 80% in each case.

`COc1ccnc(C(=O)N[C@@H](C)C(=O)O[C@H](C)[C@H](C)C2CCCC2)c1OC(C)=O` [Example 252]: the pest or weed control at 121.5 g/ha in assay [1] (setting [4]) was under 0%; in assay [1] (setting [5]), under 80%; in assay [2] (setting [6]), under 0%; in assay [2] (setting [7]) it was under 80%. Moreover, the pest or weed control at 25 ppm in assay [3] (setting [8]) and in assay [3] (setting [9]) was under 80% throughout.
